In EPA's ToxRefDB 2:

Experiments:
rabbit [1] = details: Prenatal developmental toxicity study, Oral, Gavage/Intubation, dose end: 19 GD
rat [2] = details: Sub-acute repeat dose toxicity, sprague dawley, Oral, Gavage/Intubation, dose end: 36 day, group: systemic
rabbit [3] = details: Prenatal developmental toxicity study, new zealand white, Oral, Gavage/Intubation, dose end: 18 GD, group: maternal
rat [4] = details: Subchronic oral toxicity in rodents, fischer, Feed, dose end: 13 week, group: systemic
mouse = details: Subchronic oral toxicity in rodents, b6c3f1, Feed, dose end: 13 week, group: systemic, systemic / organ weight / liver / absolute + systemic / organ weight / liver / relative to body weight + systemic / pathology microscopic / …
rat [5] = details: Multigenerational reproductive toxicity study, wistar, Oral, Water, dose end: 1 generation
rat [6] = details: Prenatal developmental toxicity study, wistar, Oral, Water, dose end: 19 GD
rat [7] = details: Prenatal developmental toxicity study, fischer, Oral, Gavage/Intubation, dose end: 15 GD
dog [8] = details: Sub-acute repeat dose toxicity, beagle, Oral, Gavage/Intubation, dose end: 15 day, group: systemic
rat [9] = details: Sub-acute repeat dose toxicity, sprague dawley, Oral, Gavage/Intubation, dose end: 21 day, group: systemic
rat [10] = details: Subchronic oral toxicity in rodents, sprague dawley, Gavage/Intubation, dose end: 90 day, group: systemic
dog [11] = details: Subchronic oral toxicity in nonrodent, beagle, Gavage/Intubation, dose end: 90 day, group: systemic, systemic / in life observation / clinical signs / emesis + systemic / in life observation / clinical signs / erythema + systemic / in life …
rabbit [12] = details: Sub-acute repeat dose toxicity, new zealand white, Oral, Gavage/Intubation, dose end: 5 day, group: systemic
rat [13] = details: Fertility (Segment I), sprague dawley, Oral, Gavage/Intubation, dose end: 1 generation
rabbit [14] = details: Prenatal developmental toxicity study, new zealand white, Oral, Gavage/Intubation, dose end: 19 GD, group: maternal
dog [15] = details: Sub-acute repeat dose toxicity, beagle, Oral, Gavage/Intubation, dose end: 5 day, group: systemic
rat [16] = details: Prenatal developmental toxicity study; sprague dawley; Oral; Gavage/Intubation; dose end: 18 GD; group: maternal; systemic / in life observation / body weight / body weight + systemic / in life observation / body weight / body weight gain + systemic / in…
rat [17] = details: Fertility (Segment I), sprague dawley, Oral, Gavage/Intubation, dose end: 1 generation, group: parental
[18] = group: developmental, systemic / in life observation / body weight / fetal weight
[19] = group: maternal, systemic / in life observation / body weight / body weight + systemic / in life observation / food consumption / food consumption + systemic…
[20] = systemic / in life observation / body weight / body weight gain + systemic / in life observation / body weight / offspring (pup) weight + …
[21] = reproductive / reproductive performance / aborted / aborted + systemic / in life observation / mortality / mortality
[22] = systemic / clinical chemistry / cholesterol / cholesterol
[23] = group: offspring, developmental / developmental landmark / eye opening / eye opening + developmental / developmental landmark / incisor eruption / incisor …
[24] = group: offspring, developmental / developmental malformation / bone / kinked
[25] = group: parental, systemic / in life observation / body weight / body weight + systemic / in life observation / body weight / body weight gain + systemic / in…
[26] = group: reproductive, reproductive / reproductive performance / implantations / implantations + reproductive / reproductive performance / resorptions / …
[27] = group: developmental, developmental / developmental malformation / bone / incomplete ossification + developmental / developmental malformation / bone / wavy
[28] = group: maternal, reproductive / reproductive performance / pregnancy / pregnancy + systemic / in life observation / body weight / body weight + systemic / in…
[29] = group: developmental, developmental / developmental malformation / bone / delayed ossification
[30] = group: developmental, developmental / developmental malformation / bone / delayed ossification + developmental / developmental malformation / bone / supernumerary…
[31] = group: maternal, systemic / in life observation / clinical signs / ocular discharge + systemic / in life observation / clinical signs / red or crusty …
[32] = systemic / clinical chemistry / alanine aminotransferase (alt/sgpt) / alanine aminotransferase (alt/sgpt) + systemic / hematology / platelet…
[33] = systemic / in life observation / body weight / body weight + systemic / clinical chemistry / alanine aminotransferase (alt/sgpt) / alanine …
[34] = systemic / clinical chemistry / alanine aminotransferase (alt/sgpt) / alanine aminotransferase (alt/sgpt) + systemic / clinical chemistry / …
[35] = systemic / organ weight / liver / relative to body weight
[36] = systemic / clinical chemistry / [other] / [other] + systemic / clinical chemistry / aspartate aminotransferase (ast/sgot) / aspartate …
[37] = systemic / organ weight / liver / absolute + systemic / in life observation / clinical signs / salivation
[38] = systemic / in life observation / body weight / body weight gain + systemic / in life observation / clinical signs / [other] + systemic / in …
[39] = systemic / in life observation / clinical signs / abnormal feces + systemic / in life observation / clinical signs / altered breathing rate
[40] = group: maternal, reproductive / reproductive performance / estrous cycle / length
[41] = group: parental, systemic / in life observation / body weight / body weight + systemic / in life observation / clinical signs / [other] + systemic / in life …
[42] = group: parental, systemic / in life observation / clinical signs / altered breathing rate + systemic / in life observation / clinical signs / compulsive …
[43] = systemic / in life observation / clinical signs / dialated pupils + systemic / in life observation / food consumption / food consumption
[44] = systemic / in life observation / body weight / body weight + systemic / in life observation / clinical signs / emesis + systemic / in life …
[45] = systemic / in life observation / clinical signs / salivation + systemic / in life observation / clinical signs / emesis
[46] = systemic / in life observation / body weight / body weight + systemic / in life observation / clinical signs / altered breathing rate + …

In the case of `COCCOC[C@H](CC1(C(=O)NC2CCC(C(=O)O)CC2)CCCC1)C(=O)Oc1ccc2c(c1)CCC2` (stereo not given in full) [Candoxatril], the LEL (rabbit [1]; [18]) was 1000 mg/kg/day, the LOAEL (rabbit [1]; [18]) was greater than 1000 mg/kg/day and the NOAEL (rabbit [1]; [18]) was no less than 1000 mg/kg/day. It also gave an LEL (rabbit [1]; [19]) of 1000 mg/kg/day, an LOAEL (rabbit [1]; [19]) greater than 1000 mg/kg/day and an NEL (rabbit [1]; [19]) of 250 mg/kg/day. It also gave an NOAEL (rabbit [1]; [19]) of no less than 1000 mg/kg/day, an LOAEL (rat [2]; [20]) greater than 1200 mg/kg/day and an NOAEL (rat [2]; [20]) of no less than 1200 mg/kg/day. For the same compound, the NEL (rat [2]; systemic / in life observation / clinical signs / hyperactivity) was less than 120 mg/kg/day.
Compound `CCCCC(CC)C(=O)O` (stereo not given) [2-Ethylhexanoic acid] has an LEL (rabbit [3]; [21]) of 125 mg/kg/day, an LOAEL (rabbit [3]; [21]) of 125 mg/kg/day and an NOAEL (rabbit [3]; reproductive / reproductive performance / aborted / aborted + systemic / in life observation / mortality / mortality + systemic / in life …) of 25 mg/kg/day. The LEL (rat [4]; [22]) was 61 mg/kg/day, the NEL (rat [4]; [22]) was less than 61 mg/kg/day and the LOAEL (rat [4]; systemic / organ weight / liver / relative to body weight + systemic / pathology microscopic / liver / hypertrophy) was 303 mg/kg/day. It also gave an NOAEL (rat [4]; systemic / organ weight / liver / relative to body weight + systemic / pathology microscopic / liver / hypertrophy + systemic / clinical …) of 61 mg/kg/day, an LEL (mouse) of 885 mg/kg/day and an LOAEL (mouse) of 885 mg/kg/day. It also gave an NEL (mouse) of 180 mg/kg/day, an NOAEL (mouse) of 180 mg/kg/day and an LOAEL (rat [5]; [23]) greater than 600 mg/kg/day. It also gave an NOAEL (rat [5]; [23]) of no less than 600 mg/kg/day, an LEL (rat [5]; [24]) of 100 mg/kg/day and an NEL (rat [5]; [24]) of less than 100 mg/kg/day. For the same compound, the LOAEL (rat [5]; [25]) was greater than 600 mg/kg/day, the NEL (rat [5]; [25]) was 100 mg/kg/day and the NOAEL (rat [5]; [25]) was no less than 600 mg/kg/day. The LEL (rat [5]; group: parental, systemic / pathology microscopic / uterus / dilatation + systemic / pathology microscopic / vagina / hyperplasia + systemic / pathology …) was 300 mg/kg/day, the LEL (rat [5]; [26]) was 600 mg/kg/day and the LOAEL (rat [5]; [26]) was greater than 600 mg/kg/day. The NOAEL (rat [5]; [26]) was no less than 600 mg/kg/day, the LEL (rat [6]; [27]) was 100 mg/kg/day and the LOAEL (rat [6]; [27]) was 100 mg/kg/day. The NEL (rat [6]; [27]) was less than 100 mg/kg/day, the NOAEL (rat [6]; [27]) was less than 100 mg/kg/day and the LEL (rat [6]; group: maternal, reproductive / reproductive performance / pregnancy / pregnancy) was 300 mg/kg/day. The LOAEL (rat [6]; [28]) was greater than 600 mg/kg/day, the NEL (rat [6]; [28]) was 100 mg/kg/day and the NOAEL (rat [6]; [28]) was no less than 600 mg/kg/day. The LEL (rat [7]; [29]) was 250 mg/kg/day, the LOAEL (rat [7]; [29]) was 250 mg/kg/day and the NEL (rat [7]; [30]) was 100 mg/kg/day. It also gave an NOAEL (rat [7]; [30]) of 100 mg/kg/day, an NEL (rat [7]; group: maternal, reproductive / reproductive performance / postimplantation loss / postimplantation loss + reproductive / reproductive performance / …) of 250 mg/kg/day and an LEL (rat [7]; [31]) of 500 mg/kg/day. The LOAEL (rat [7]; [31]) was 500 mg/kg/day and the NOAEL (rat [7]; [31]) was 250 mg/kg/day.
With `CNCc1cc(F)ccc1Oc1ccc(Cl)c(Cl)c1` the LOAEL (dog [8]; [32]) was greater than 60 mg/kg/day, the NOAEL (dog [8]; [32]) was no less than 60 mg/kg/day and the LEL (dog [8]; [33]) was 3 mg/kg/day. The NEL (dog [8]; [33]) was less than 3 mg/kg/day, the LOAEL (rat [9]; [34]) was greater than 300 mg/kg/day and the NOAEL (rat [9]; [34]) was no less than 300 mg/kg/day. For the same compound, the LEL (rat [9]; [35]) was 10 mg/kg/day, the NEL (rat [9]; [35]) was less than 10 mg/kg/day and the LOAEL (rat [10]; [36]) was greater than 150 mg/kg/day. The NOAEL (rat [10]; [36]) was no less than 150 mg/kg/day, the LEL (rat [10]; [37]) was 10 mg/kg/day and the NEL (rat [10]; [37]) was less than 10 mg/kg/day. The LEL (dog [11]) was 2 mg/kg/day, the LOAEL (dog [11]) was greater than 30 mg/kg/day and the NEL (dog [11]) was less than 2 mg/kg/day. For the same compound, the NOAEL (dog [11]) was no less than 30 mg/kg/day, the LOAEL (rabbit [12]; [38]) was greater than 100 mg/kg/day and the NOAEL (rabbit [12]; [38]) was no less than 100 mg/kg/day. It also gave an LEL (rabbit [12]; [39]) of 10 mg/kg/day, an NEL (rabbit [12]; [39]) of less than 10 mg/kg/day and an LEL (rat [13]; [40]) of 30 mg/kg/day. For the same compound, the LOAEL (rat [13]; [40]) was greater than 60 mg/kg/day, the NEL (rat [13]; [40]) was 10 mg/kg/day and the NOAEL (rat [13]; [40]) was no less than 60 mg/kg/day. For the same compound, the LOAEL (rat [13]; [41]) was greater than 60 mg/kg/day, the NOAEL (rat [13]; [41]) was no less than 60 mg/kg/day and the LEL (rat [13]; [42]) was 10 mg/kg/day. It also gave an NEL (rat [13]; [42]) of less than 10 mg/kg/day, an LEL (rabbit [14]; systemic / in life observation / clinical signs / dialated pupils) of 10 mg/kg/day and an LOAEL (rabbit [14]; [43]) greater than 30 mg/kg/day. It also gave an NOAEL (rabbit [14]; [43]) of no less than 30 mg/kg/day, an LOAEL (dog [15]; [44]) greater than 10 mg/kg/day and an NOAEL (dog [15]; [44]) of no less than 10 mg/kg/day. It also gave an LEL (dog [15]; [45]) of 3 mg/kg/day, an NEL (dog [15]; [45]) of less than 3 mg/kg/day and an LEL (rat [16]) of 25 mg/kg/day. It also gave an LOAEL (rat [16]) greater than 50 mg/kg/day, an NOAEL (rat [16]) of no less than 50 mg/kg/day and an LOAEL (rat [17]; [46]) greater than 100 mg/kg/day. It also gave an NEL (rat [17]; [46]) of 10 mg/kg/day, an NOAEL (rat [17]; [46]) of no less than 100 mg/kg/day and an LEL (rat [17]; systemic / in life observation / clinical signs / salivation + systemic / in life observation / food consumption / food consumption) of 30 mg/kg/day.
